# Laboratory results taken from ChEMBL document CHEMBL3832057.
# Test system: Homo sapiens
# Assay: Evaluation of pharmacokinetic parameters for Rifampin in serum following single oral administration of 10 mg/kg Rifampin to pediatric patients.
# Type: ADME, organism-based
# Set-up: dose 600 mg, dose 10 mg/kg, route oral
# Settings: in vivo, dosed compound id 35, dosed compound name RIFAMPICIN, gender male and female, regimen Single dose, tissue Serum
compound,measurement,value
CO[C@H]1/C=C/O[C@@]2(C)Oc3c(C)c(O)c4c(O)c(c(/C=N/N5CCN(C)CC5)c(O)c4c3C2=O)NC(=O)/C(C)=C\C=C\[C@H](C)[C@H](O)[C@@H](C)[C@@H](O)[C@@H](C)[C@H](OC(C)=O)[C@@H]1C [RIFAMPIN],Tmax,1 h
